Read-outs that look alike come from different tables or passages of the source.

What all share (assay type): biochemical
For one experiment, the target named is T1, PDE5A (Homo sapiens, UniProt O76074).
T1 construct: they are full-length with N-terminal GST tag; GST (N); purchased BPS Biosciences 60050; host or cells: baculovirus infected Sf9 cells
The experiment can be described thus: PDE enzyme activity assay (HTRF cGMP), PDE5A.

The target of a further experiment is HDAC1 (Homo sapiens, UniProt Q13547). The experiment is described as follows: HDAC enzyme activity assay (fluorogenic substrate), HDAC1.
HDAC1, sequence (Q13547 whole entry): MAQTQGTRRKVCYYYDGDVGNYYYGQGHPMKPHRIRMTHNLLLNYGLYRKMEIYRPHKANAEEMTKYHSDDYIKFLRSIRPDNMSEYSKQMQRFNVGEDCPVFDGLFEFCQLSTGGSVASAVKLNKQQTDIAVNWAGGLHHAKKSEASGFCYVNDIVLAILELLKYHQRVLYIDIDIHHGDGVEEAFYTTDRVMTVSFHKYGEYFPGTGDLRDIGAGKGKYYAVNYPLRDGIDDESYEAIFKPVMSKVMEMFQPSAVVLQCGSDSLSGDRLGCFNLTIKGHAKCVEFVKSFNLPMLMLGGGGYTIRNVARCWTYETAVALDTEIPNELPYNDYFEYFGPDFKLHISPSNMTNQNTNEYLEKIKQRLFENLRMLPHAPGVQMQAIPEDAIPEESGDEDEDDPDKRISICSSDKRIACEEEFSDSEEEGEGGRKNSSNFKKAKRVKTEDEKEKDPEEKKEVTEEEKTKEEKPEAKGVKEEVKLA
The target in another experiment is T2, HDAC2 (Homo sapiens, UniProt Q92769).
T2 construct: NM_001527; Cat. #50002) is full-length with C-terminal his tag; His (C); purchased BPS Biosciences 50002; host or cells: baculovirus infected Sf9 cells
T2 sequence (Q92769 whole entry): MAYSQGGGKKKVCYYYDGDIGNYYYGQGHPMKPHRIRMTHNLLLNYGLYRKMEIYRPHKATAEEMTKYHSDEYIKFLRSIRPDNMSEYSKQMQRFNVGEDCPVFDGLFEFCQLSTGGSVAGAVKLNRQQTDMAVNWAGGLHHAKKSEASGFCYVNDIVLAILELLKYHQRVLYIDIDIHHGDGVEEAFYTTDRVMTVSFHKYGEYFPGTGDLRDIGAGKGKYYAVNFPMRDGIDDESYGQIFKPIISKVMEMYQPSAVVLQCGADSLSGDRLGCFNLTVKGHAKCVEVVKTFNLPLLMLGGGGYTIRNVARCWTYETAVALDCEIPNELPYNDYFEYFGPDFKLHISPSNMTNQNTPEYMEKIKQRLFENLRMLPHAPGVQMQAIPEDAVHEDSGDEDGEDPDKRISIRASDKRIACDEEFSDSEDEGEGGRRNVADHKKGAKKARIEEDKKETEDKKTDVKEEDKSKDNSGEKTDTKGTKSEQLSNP
The experiment is described as follows: HDAC enzyme activity assay (fluorogenic substrate), HDAC2.

Another experiment deals with T3, HDAC6 (Homo sapiens, UniProt Q9UBN7).
T3 construct: BC069243; Cat. #50006) is full-length with N-terminal GST tag; GST (N); purchased BPS Biosciences 50006; host or cells: baculovirus infected Sf9 cells
T3 sequence (Q9UBN7 1-1215): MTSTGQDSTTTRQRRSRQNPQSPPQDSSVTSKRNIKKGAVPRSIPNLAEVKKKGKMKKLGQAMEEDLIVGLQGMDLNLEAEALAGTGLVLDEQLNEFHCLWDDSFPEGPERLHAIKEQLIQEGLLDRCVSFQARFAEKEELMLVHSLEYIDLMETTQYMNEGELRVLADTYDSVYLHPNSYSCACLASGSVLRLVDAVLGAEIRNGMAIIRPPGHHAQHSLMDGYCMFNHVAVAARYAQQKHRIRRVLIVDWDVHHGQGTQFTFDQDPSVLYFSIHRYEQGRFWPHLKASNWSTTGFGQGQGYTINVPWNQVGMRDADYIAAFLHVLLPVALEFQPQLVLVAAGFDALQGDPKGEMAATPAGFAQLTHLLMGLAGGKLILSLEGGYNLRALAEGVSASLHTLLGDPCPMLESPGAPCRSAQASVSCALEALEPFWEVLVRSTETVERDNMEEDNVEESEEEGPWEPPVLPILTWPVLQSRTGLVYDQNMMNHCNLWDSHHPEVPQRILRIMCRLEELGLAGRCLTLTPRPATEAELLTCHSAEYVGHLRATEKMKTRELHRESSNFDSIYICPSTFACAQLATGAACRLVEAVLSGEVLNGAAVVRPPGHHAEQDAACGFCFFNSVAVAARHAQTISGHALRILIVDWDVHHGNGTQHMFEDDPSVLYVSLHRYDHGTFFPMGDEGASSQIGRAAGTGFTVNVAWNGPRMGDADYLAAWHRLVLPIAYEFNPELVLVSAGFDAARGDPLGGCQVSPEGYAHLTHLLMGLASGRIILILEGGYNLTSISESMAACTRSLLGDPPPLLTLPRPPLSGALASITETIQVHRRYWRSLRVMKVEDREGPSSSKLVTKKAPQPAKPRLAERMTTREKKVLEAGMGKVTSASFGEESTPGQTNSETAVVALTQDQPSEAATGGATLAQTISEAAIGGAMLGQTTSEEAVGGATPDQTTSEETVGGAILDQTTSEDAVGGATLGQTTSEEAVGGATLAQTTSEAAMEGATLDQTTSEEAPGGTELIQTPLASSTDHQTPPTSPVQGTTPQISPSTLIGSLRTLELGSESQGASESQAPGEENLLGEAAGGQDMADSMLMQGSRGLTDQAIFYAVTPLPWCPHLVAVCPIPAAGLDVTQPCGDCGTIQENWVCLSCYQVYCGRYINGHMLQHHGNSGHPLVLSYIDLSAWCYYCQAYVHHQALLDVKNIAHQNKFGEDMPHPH
The experiment can be described thus: HDAC enzyme activity assay (fluorogenic substrate), HDAC6.

Setting [1] is: recombinant enzyme, read-out: PDE5A1 inhibition (IC50).
Setting [2] is: recombinant enzyme, read-out: HDAC1 inhibition (IC50).
Where [3] appears, read: recombinant enzyme, read-out: HDAC2 inhibition (IC50).
Where [4] appears, read: recombinant enzyme, read-out: HDAC6 inhibition (IC50).
Where [5] appears, read: comparative examples, inactive, read-out: HDAC1 IC50.
Where [6] appears, read: comparative examples, inactive, read-out: HDAC2 IC50.
The mark [7] stands for this setting: comparative examples, inactive, read-out: HDAC6 IC50.

Regarding `CCCc1nn(C)c2c(=O)[nH]c(-c3cc(CC4CCC(CC(=O)NO)CC4)ccc3OCC)nc12` (racemic) [Example 1-43], the IC50 – broadly, the midpoint of a concentration-inhibition curve – was 10 to 1000 nM on PDE5A (setting [1]), 1000 to 10000 nM on HDAC1 (setting [2]), over 10000 nM at HDAC2 (setting [3]) and 10 to 1000 nM on HDAC6 (setting [4]).

Regarding `CCCc1nc(C)c2c(=O)[nH]c(-c3cc(CC4CC(C(=O)N(C)OC)C4)ccc3OCC)nn12` (stereo not shown) [Comparative Example 2-02, 3-[[4-ethoxy-3-(5-methyl-4-oxo-7-propyl-3H-imidazo[5,1-f][1,2,4]triazin-2-yl)phenyl]methyl]-N-methoxy-N-methylcyclobutanecarboxamide, reference compound], the IC50 on PDE5A (comparative example, read-out: PDE5A1 IC50) is under 10 nM; at HDAC1 (setting [5]) it was over 20000 nM; on HDAC2 (setting [6]) it was over 20000 nM; on HDAC6 (setting [7]) it was over 20000 nM.

Consider `CCCc1nn(C)c2c(=O)[nH]c(-c3cc(Nc4ccc(C(=O)NO)cc4)ccc3OCC)nc12` [Example 1-21, 4-[4-ethoxy-3-(1-methyl-7-oxo-3-propyl-6H-pyrazolo[4,3-d]pyrimidin-5-yl)anilino]benzenecarbohydroxamic acid], for which the IC50 is under 10 nM at PDE5A (setting [1]), 10 to 1000 nM at HDAC1 (setting [2]), over 10000 nM at HDAC2 (setting [3]) and 10 to 1000 nM on HDAC6 (setting [4]).

For the compound `CCCc1nn(C)c2c(=O)[nH]c(-c3cc(NCC4CCN(c5ncc(C(=O)NO)cn5)CC4)ccc3OCC)nc12` [Example 1-23], the IC50 on PDE5A (setting [1]), on HDAC1 (setting [2]), at HDAC2 (setting [3]) and on HDAC6 (setting [4]) was 10 to 1000 nM throughout.

`CCCc1nn(C)c2c(=O)[nH]c(-c3cc(C(=O)NO)ccc3OCC)nc12` [Example 1-27, 4-ethoxy-3-(1-methyl-7-oxo-3-propyl-6H-pyrazolo[4,3-d]pyrimidin-5-yl)benzenecarbohydroxamic acid]: the IC50 on PDE5A (setting [1]) was under 10 nM; on HDAC1 (setting [2]) it was 1000 to 10000 nM; on HDAC2 (setting [3]) it was over 10000 nM; on HDAC6 (setting [4]), over 10000 nM.

As for `CCCc1nn(C)c2c(=O)[nH]c(-c3cc(CC4CCC(C(=O)NO)CC4)ccc3OCC)nc12` (stereo not shown) [Example 1-28, 4-[[4-ethoxy-3-(1-methyl-7-oxo-3-propyl-6H-pyrazolo[4,3-d]pyrimidin-5-yl)phenyl]methyl]cyclohexanecarbohydroxamic acid], the IC50 at PDE5A (setting [1]) was 10 to 1000 nM; on HDAC1 (setting [2]), 10 to 1000 nM; on HDAC2 (setting [3]), over 10000 nM; on HDAC6 (setting [4]) it was 10 to 1000 nM.

As to `CCCc1nn(C)c2c(=O)[nH]c(-c3cc(CCC(=O)NO)ccc3OCC)nc12` [Example 1-31, 3-[4-ethoxy-3-(1-methyl-7-oxo-3-propyl-6H-pyrazolo[4,3-d]pyrimidin-5-yl)phenyl]propanehydroxamic acid], the IC50 on PDE5A (setting [1]) is 10 to 1000 nM; on HDAC1 (setting [2]), 1000 to 10000 nM; on HDAC2 (setting [3]) it was over 10000 nM; at HDAC6 (setting [4]) it was 1000 to 10000 nM.

`CCCc1nn(C)c2c(=O)[nH]c(-c3cc(NCCC(=O)NO)ccc3OCC)nc12` [Example 1-33, 3-[4-ethoxy-3-(1-methyl-7-oxo-3-propyl-6H-pyrazolo[4,3-d]pyrimidin-5-yl)anilino]propanehydroxamic acid]: the IC50 is 10 to 1000 nM on PDE5A (setting [1]), 1000 to 10000 nM at HDAC1 (setting [2]), over 10000 nM at HDAC2 (setting [3]) and over 10000 nM on HDAC6 (setting [4]).

With `CCCc1nn(C)c2c(=O)[nH]c(-c3cc(-c4ccc(CC(=O)NO)cc4)ccc3OCC)nc12` [Example 1-34], the IC50 is 10 to 1000 nM at PDE5A (setting [1]), over 10000 nM at HDAC1 (setting [2]), over 10000 nM at HDAC2 (setting [3]) and 10 to 1000 nM at HDAC6 (setting [4]).

For `CCCc1nn(C)c2c(=O)[nH]c(-c3cc(N4CCC(C(=O)NO)CC4)ccc3OCC)nc12` [Example 1-35, 1-[4-ethoxy-3-(1-methyl-7-oxo-3-propyl-6H-pyrazolo[4,3-d]pyrimidin-5-yl)phenyl]piperidine-4-carbohydroxamic acid], the half-maximal inhibitory concentration (IC50) was 10 to 1000 nM on PDE5A (setting [1]), 1000 to 10000 nM at HDAC1 (setting [2]), over 10000 nM at HDAC2 (setting [3]) and 1000 to 10000 nM on HDAC6 (setting [4]).

Take `CCCc1nn(C)c2c(=O)[nH]c(-c3cc(CN4CCC(C(=O)NO)CC4)ccc3OCC)nc12` [Example 1-36, 1-[[4-ethoxy-3-(1-methyl-7-oxo-3-propyl-6H-pyrazolo[4,3-d]pyrimidin-5-yl)phenyl]methyl]piperidine-4-carbohydroxamic acid]: the IC50 on PDE5A (setting [1]) is 10 to 1000 nM; at HDAC1 (setting [2]) it was 1000 to 10000 nM; at HDAC2 (setting [3]), over 10000 nM; at HDAC6 (setting [4]) it was 1000 to 10000 nM.

For `CCCc1nn(C)c2c(=O)[nH]c(-c3cc(Oc4ccc(C(=O)NO)cc4)ccc3OCC)nc12` [Example 1-37, 4-[4-ethoxy-3-(1-methyl-7-oxo-3-propyl-6H-pyrazolo[4,3-d]pyrimidin-5-yl)phenoxy]benzenecarbohydroxamic acid], the IC50 on PDE5A (setting [1]) lay in the range of 10 to 1000 nM; at HDAC1 (setting [2]), 10 to 1000 nM; on HDAC2 (setting [3]), 1000 to 10000 nM; at HDAC6 (setting [4]) it was 10 to 1000 nM.

In the case of `CCCc1nn(C)c2c(=O)[nH]c(-c3cc(C4=CCC(C(=O)NO)CC4)ccc3OCC)nc12` (stereo not shown) [Example 1-38, 4-[4-ethoxy-3-(1-methyl-7-oxo-3-propyl-6H-pyrazolo[4,3-d]pyrimidin-5-yl)phenyl]cyclohex-3-ene-1-carbohydroxamic acid], the IC50 is 10 to 1000 nM at PDE5A (setting [1]), 1000 to 10000 nM on HDAC1 (setting [2]), over 10000 nM at HDAC2 (setting [3]) and 10 to 1000 nM on HDAC6 (setting [4]).

With `CCCc1nn(C)c2c(=O)[nH]c(-c3cc(CC4CCN(c5ccc(C(=O)NO)cn5)CC4)ccc3OCC)nc12` [Example 1-39], the IC50 at PDE5A (setting [1]) fell in the range of 10 to 1000 nM; on HDAC1 (setting [2]), 1000 to 10000 nM; on HDAC2 (setting [3]), 1000 to 10000 nM; on HDAC6 (setting [4]), 10 to 1000 nM.

Regarding `CCCc1nn(C)c2c(=O)[nH]c(-c3cc(C4CCC(C(=O)NO)CC4)ccc3OCC)nc12` (stereo not shown) [Example 1-41, 4-[4-ethoxy-3-(1-methyl-7-oxo-3-propyl-6H-pyrazolo[4,3-d]pyrimidin-5-yl)phenyl]cyclohexanecarbohydroxamic acid], the IC50 on PDE5A (setting [1]) was 10 to 1000 nM; at HDAC1 (setting [2]), over 10000 nM; at HDAC2 (setting [3]) it was over 10000 nM; on HDAC6 (setting [4]) it was 1000 to 10000 nM.

Turning to `CCCc1nn(C)c2c(=O)[nH]c(-c3cc(C4=CCC(CC(=O)NO)CC4)ccc3OCC)nc12` (stereo not shown) [Example 1-42], the IC50 was 10 to 1000 nM at PDE5A (setting [1]), 1000 to 10000 nM on HDAC1 (setting [2]), over 10000 nM on HDAC2 (setting [3]) and 10 to 1000 nM on HDAC6 (setting [4]).

`CCCc1nn(C)c2c(=O)[nH]c(-c3cc(CC4CCN(C(=O)NO)CC4)ccc3OCC)nc12` [Example 1-49, 4-[[4-ethoxy-3-(1-methyl-7-oxo-3-propyl-6H-pyrazolo[4,3-d]pyrimidin-5-yl)phenyl]methyl]piperidine-1-carbohydroxamic acid]: the concentration for half-maximal inhibition (IC50) at PDE5A (setting [1]) is 10 to 1000 nM; at HDAC1 (setting [2]), over 10000 nM; on HDAC2 (setting [3]), over 10000 nM; on HDAC6 (setting [4]) it was 1000 to 10000 nM.

For `CCCc1nn(C)c2c(=O)[nH]c(-c3cc(C4CCC(CC(=O)NO)CC4)ccc3OCC)nc12` (stereo not shown) [Example 1-51], the IC50 is 10 to 1000 nM at PDE5A (setting [1]), 1000 to 10000 nM at HDAC1 (setting [2]), over 10000 nM on HDAC2 (setting [3]) and 1000 to 10000 nM on HDAC6 (setting [4]).

Take `CCCc1nn(C)c2c(=O)[nH]c(-c3cc(OC4CCC(C(=O)NO)CC4)ccc3OCC)nc12` (stereo not shown) [Example 1-53]: the IC50 on PDE5A (setting [1]) was 10 to 1000 nM; at HDAC1 (setting [2]), 1000 to 10000 nM; at HDAC2 (setting [3]) it was 1000 to 10000 nM; at HDAC6 (setting [4]), 1000 to 10000 nM.

Regarding “(1R,2R)-2-(1-(4,4-difluorocyclohexyl)-3a,4,5,7a-tetrahydro-4-oxo-1H-pyrazolo[3,4-d]pyrimidin-6-yl)-N-methoxy-N-methylcyclobutanecarboxamide [Comparative Example 3-01, reference compound]”, the IC50 on HDAC1 (setting [5]), on HDAC2 (setting [6]) and at HDAC6 (setting [7]) was over 20000 nM throughout.
